According to PMC9760738, “Pharmacokinetics, absorption, distribution, metabolism and excretion of the MEK inhibitor zapnometinib in rats” (Frontiers in Pharmacology, 2022):

Experiments:
[1] = QWBA tissue radioactivity, single oral 30 mg/kg, female partially pigmented rats (Group 3); Table 6 columns c2-c8 = 0.5, 2, 4, 8, 24, 72, 168 h; type: in vivo, rat; conditions: 2 h
Description: The whole-body autoradiography techniques by Ullberg and Larsson was used in this study ([Ullberg and Larsson 1981]). Following a single oral administration of [^14C]-zapnometinib to seven male and seven female partially pigmented rats (Group 3) and four male albino rats (Group 4), one animal per sex (where appropriate) was killed at the following time points post dose: Group 3 (pigmented): 0.5, 2, 4, 8, 24, 72, and 168 h, Group 4 (albino): 2, 24, 72 and 168 h. At sacrifice, each rat was anaesthetized with isoflurane and a blood sample (ca 5 ml) was collected by cardiac puncture into a tube containing K2EDTA anticoagulant. Blood was centrifuged at 2000 ×g for 10 min at 4°C to obtain plasma, which was transferred into plain tubes pending measurement of radioactivity concentration. The blood cells were also retained for analysis.
The rat carcasses were immediately attached to a plate and frozen in a bath of n-heptane and solid CO2 at ca –80°C and then stored at –20 ± 10°C until taken for sectioning. […] [^14C]-Blood standards containing six different known concentrations of radioactivity were used to construct the calibration line for the quantitative determination of tissue concentrations of radioactivity. […] The electronic images of all sections were analyzed at Labcorp–Huntingdon using a validated image analysis package (Seescan Densitometry software, version 2.0). […]

[2] = Metabolite profiling of pooled feces extracts by radio-HPLC (Group 2); type: in vivo, rat; conditions: for Proportion of feces sample radioactivity: 24-48 h
Description: Metabolite profiling was performed by HPLC analysis according to the company’s SOP of plasma (Group 3), urine (Group 2) and feces (Group 2) samples. Briefly, for metabolite profiling and identification, radioactivity (cpm) was measured in HPLC eluent fractions that had previously been collected at 12 s intervals for the duration of the run (65 min) into 96-well Deep Well LumaPlates and dried in a centrifugal evaporator. A Microbeta2 scintillation counter was used to count each plate, with wells simultaneously counted for 2 min, after an initial 5 min delay. A subsample of plasma was analyzed (ca 2 ml) taken from individual animals to provide representative samples, for each sex, at 2, 8 and 168 h post dose (n = 6). Equal proportions of the total urine weight voided from Group 2 animals was pooled to provide representative samples for each sex at 0–6 h, 6–24 h and 24–48 h post dose (n = 6). Equal proportions of the total feces homogenate generated from the samples voided by the three rats (Group 2) were pooled to provide representative samples for each sex at 0–24 and 24–48 h post dose ([…]). Sample preparation was carried out due to the company’s SOPs (see Supplementary Methods). The extractability was ≥95.0% (95.0–100%) TRR (Total Radioactive Residue) for plasma and ≥88.3% (88.3%–91.3%) TRR for feces. As reference, a standard solution of zapnometinib (0.1 mg/ml in acetonitrile) was used. To assess HPLC method suitability, a column recovery was assessed on each representative sample (one per matrix). The recovery of radioactivity from the HPLC column was determined by collecting the column eluent, following an injection of a representative sample (one per matrix), and determining the radioactive content by submitting aliquots for LSC analysis. The results of these analyses were between 93.8%–105.1% column recoveries.
Next, radioactive metabolic components of zapnometinib in urine, plasma and feces extracts were isolated and profiled. The components were quantified by fraction collection/scintillation analysis, as appropriate to the radioactivity concentrations. Mass spectroscopy was used to propose identities of the major circulatory and excreted metabolites, and to correlate the metabolites detected in the different matrices. Components identified by LC-MS/MS were related to the quantified HPLC analysis by comparison of related radiochromatograms and comparison of elution order. Representative HPLC radiochromatograms of pooled feces extracts collected during 0–24 and 24–48 h post dose from male and female rats (which reveal the main metabolites) were qualitatively similar with some minor sex differences (Figure 3). […]
times with the following solvents following the same procedure: Extract 2 – Acetonitrile/methanol 4:1 (v/v); Extract 3 – Acetonitrile/Water 1:1 (v/v). Duplicate weighed aliquots of each supernatant (ca 0.1 mL) were mixed directly with Ultima Gold scintillation cocktail for measurement of radioactivity concentrations. The extracted residue was allowed to air dry and the total weight was recorded. Duplicate weighed portions (ca 0.05g) were taken for radioassay after oxidation. The extracts were combined and concentrated under a constant stream of nitrogen gas to near dryness and reconstituted in acetonitrile/0.1% aqueous formic acid, 1:1 (v/v) by vortex mixing, sonication and centrifugation at 10000 × g for 5 min at 4°C.
The concentrates were weighed, and duplicate weighed aliquots (0.025 – 0.05 mL) taken for measurement of radioactivity to calculate recovery following concentration. An aliquot of each concentrated extract was injected into the HPLC. […]
(100 mL) in purified water (600 mL) and methanol (300 mL). After measurement of total sample weight (as appropriate), replicate portions of diluted dose solutions (ca 0.1 mL), plasma (ca 0.05 – 0.25 mL), urine (ca 0.05 – 0.25 mL), expired air trap solution (ca 1 mL) and cage wash (ca 1 mL) were mixed directly with Ultima Gold scintillation cocktail (5 mL; 15 mL for […]

## O=C(O)c1ccc(F)c(F)c1Nc1ccc(I)cc1Cl [zapnometinib, 2-(2-Chloro-4-iodophenylamino)-3,4-difluorobenzoic acid]
[1]
  Radioactivity in all remaining tissues: ≤ 74.4 µg equivs/g
[2]; 0-24 hours, female rats
  Amount in pooled feces extracts: 19.87 % Dose
[2]; 0-24 hours, male rats
  Amount in pooled feces extracts: 19.28 % Dose
[2]; female rats
  Proportion of feces sample radioactivity: 28.5 % sample radioactivity
[2]; male rats
  Proportion of feces sample radioactivity: 21.5 % sample radioactivity
[2]; 24-48 hours, female rats
  Amount in pooled feces extracts: 6.30 % Dose
[2]; 24-48 hours, male rats
  Amount in pooled feces extracts: 2.15 % Dose
[2]; Total (0-48 hours), female rats
  Amount in pooled feces extracts: 26.17 % Dose
